Publication PMC12670425, “Mechanistic Characterization of a Small Molecule as a Direct NLRP3 Inhibitor via Binding to the NACHT Domain” (Journal of Medicinal Chemistry, 2025)
Each block holds one molecule with its values, some of them ahead of it.

How the values were obtained:
NLRP3 [1] = target: T1, NLRP3 (Mus musculus, UniProt Q8R4B8); assay: Photoaffinity labeling of recombinant NLRP3 with YM-I-27 and NBD-Azide click, with competition; type: binding
T1 construct: The recombinant full-length NLRP3 protein was expressed and purified as previously described using Expi293F cells; FLAG (N); host or cells: Expi293F
Protocol: 30 μL aliquots of recombinant NLRP3 or a mixture of J774A.1 cell lysate and NLRP3 were incubated with or without YM-I-27 at the indicated concentrations at 37 °C for 30 min. The samples were then placed on ice and irradiated at 365 nm for 15 min. Subsequently, 1 μL of NBD-Azide (5 mM) or Biotin-PEG3-Azide (5 mM) was added to the samples, followed by the addition of 1 μL of CuSO4 (50 mM), tris(benzyltriazolylmethyl)-amine (TBTA) (30 mM), and tris(2-carboxyethyl)-phosphine (TCEP) (100 mM). The CuAAC reactions were agitated at room temperature for 1 h, and proteins were precipitated with prechilled methanol and left to dry. The protein pellets were then suspended in 30 μL of 2x SDS loading buffer and heated for 10 min at 95 °C. […] The Biotin-PEG3-Azide-labeled proteins were then transferred to membranes and analyzed by Western blotting using streptavidin-HRP and NLRP3 antibodies, respectively.

NLRP3 inflammasome = target: T2, NLRP3 inflammasome (Mus musculus, UniProt Q8R4B8); assay: IL-1β production in J774A.1 cells upon NLRP3 inflammasome activation (ELISA); type: cell-based, murine; conditions: for IC50: LPS/ATP activation
T2 construct: endogenous in cells; host or cells: J774A.1 murine macrophages (LPS- or Pam3CSK4-primed)
Protocol: The levels of IL-1β and TNF-α in the supernatant were measured by ELISA.

endogenous NLRP3 = target: T3, endogenous NLRP3 (Mus musculus, UniProt Q8R4B8); assay: Immunocytochemistry FRET assay in J774A.1 cells; type: cell-based, murine; conditions: LPS-treated J774A.1 cells; TAMRA acceptor clicked to probe
T3 construct: endogenous in cells; host or cells: J774A.1 murine macrophages (LPS- or Pam3CSK4-primed)
Protocol: J774A.1 cells were treated with 1 μg/mL LPS for 4.5 h, and the photoactive probe (YM-I-27) was added and incubated for 30 min. Cells were irradiated at 365 nm for 30 min on ice and were fixed and permeabilized following the Immunofluorescence Microscopy procedures. The click reaction was performed in PBS containing TAMRA-N3 (30 μM), CuSO4 (800 μM), TBTA (500 μM), and TCEP (500 μM) at room temperature in the dark for 2.5 h. Cells were thoroughly washed with PBS and blocked by following the above procedures. Cells were then treated with anti-NLRP3 (cryo-2, 1:200) for 1.5 h, followed by Alexa Fluor 488-conjugated antimouse secondary antibody (Thermo Fisher, 4 μg/mL). Coverslips were mounted to slides, and data were acquired using a Zeiss LSM710 confocal microscope (Zeiss) and a 440 nm pulsed laser. The difference in the fluorescence lifetime was calculated by subtracting the median lifetime of Alexa Fluor 488 (donor) in the absence and presence of the YM-I-27 probe clicked with TAMRA (acceptor).

NLRP3 [2] = target: T1, NLRP3; assay: In situ proteome click labeling in J774A.1 cell lysate spiked with NLRP3; type: binding, murine; conditions: YM-I-27 3 and 10 μM; Biotin-PEG3-Azide click; J774A.1 lysate:NLRP3 20:1
Protocol: 30 μL aliquots of recombinant NLRP3 or a mixture of J774A.1 cell lysate and NLRP3 were incubated with or without YM-I-27 at the indicated concentrations at 37 °C for 30 min. The samples were then placed on ice and irradiated at 365 nm for 15 min. Subsequently, 1 μL of NBD-Azide (5 mM) or Biotin-PEG3-Azide (5 mM) was added to the samples, followed by the addition of 1 μL of CuSO4 (50 mM), tris(benzyltriazolylmethyl)-amine (TBTA) (30 mM), and tris(2-carboxyethyl)-phosphine (TCEP) (100 mM). The CuAAC reactions were agitated at room temperature for 1 h, and proteins were precipitated with prechilled methanol and left to dry. The protein pellets were then suspended in 30 μL of 2x SDS loading buffer and heated for 10 min at 95 °C. The SDS-PAGE gels of NBD-Azide-labeled proteins were then washed with washing buffer (10% acetic acid, 40% methanol in water) for 2 h and imaged using ChemiDoc MP Imaging System (Bio-Rad) with Alexa Fluor 488 (λex = 490 nm, λem = 525 nm). The Biotin-PEG3-Azide-labeled proteins were then transferred to membranes and analyzed by Western blotting using streptavidin-HRP and NLRP3 antibodies, respectively.

NLRP3, NEK7, ASC = target: T4, NLRP3, NEK7, ASC (Mus musculus, UniProt Q8R4B8); assay: Photoaffinity labeling and pull-down with YM-I-85 in LPS-primed J774A.1 cell lysates; type: binding, murine; conditions: UV irradiation
T4 construct: endogenous in cells; host or cells: J774A.1 murine macrophages (LPS- or Pam3CSK4-primed)
Protocol: LPS-primed J774A.1 cells were lysed with NP-40 lysis buffer (50 mM Tris-HCl at pH 8, 150 mM NaCl, 1.0% NP-40, supplemented with cOmplete mini protease inhibitor cocktail) and centrifuged at 20,000g for 20 min at 4 °C. The supernatant was diluted to a concentration of 1.2 mg/mL and incubated with the competing compound for 1 h on ice, followed by incubation with YM-I-85 for 1 h on ice. Samples were irradiated at 365 nm for 15 min and then incubated with Streptavidin Agarose Resin (Thermo Fisher) overnight at 4 °C. The resins were washed once with 0.1% SDS in PBS and twice with 1% NP-40 in PBS before eluting with SDS-PAGE loading buffer and boiling. Beads were spun down, and the supernatants were analyzed by immunoblotting.

ASC specks = assay: ASC speck formation by immunofluorescence in J774A.1 cells; type: cell-based, murine; conditions: LPS/nigericin, YQ128 10 and 20 μM
TNF-α = TNF-α production in J774A.1 cells under LPS/nigericin (ELISA); type: cell-based, murine
NLRP3 NACHT domain = target: T5, NLRP3 NACHT domain (Homo sapiens, UniProt Q96P20); assay: Surface plasmon resonance (SPR); type: binding; conditions: biotinylated NACHT protein; single-cycle kinetics, 1:1 model
T5 construct: (K131-L679)-Avi plasmid; 8His-Strep II-ZZ-TEV site (N, cleaved yes); made in house; host or cells: Sf21 insect cells (baculovirus)
Protocol: Human biotinylated-NACHT domain of NLRP3 was expressed in Sf21 insect cells using the pFastBac1–8His-Strep II-ZZ-TEV-NLRP3­(K131-L679)-Avi plasmid. For protein expression, 1.6 L of insect cells were cultured with a viral stock of the second passage for 48 h at 27 °C. Cells were collected, lysed in lysis buffer (50 mM HEPES pH 7.5, 500 mM NaCl, 10% glycerol, 1 mM MgCl2, 1 mM TCEP, 100 μM ATP) and centrifuged at 16,000 rpm for 60 min. The supernatant was loaded onto a Ni Bestarose FF column and eluted with lysis buffer containing 300 mM imidazole. The sample was biotinylated in a tube containing BirA enzyme (1:100 (w/w) to protein) with biotin buffer and TEV protease (1:10 (w/w) to protein), and the reaction was incubated at 4 °C overnight. The sample was collected and eluted with a lysis buffer containing 75 mM biotin from Strep-Tactin XT columns. The biotinylated NACHT protein was further purified with HiLoad 16/600 Superdex 200 pg column with an elution buffer (50 mM HEPES pH 7.5, 500 mM NaCl, 10% glycerol, 1 mM MgCl2, 1 mM TCEP).
SPR experiments were performed on a Biacore 1K system with streptavidin sensor chip (Series S Sensor Chip SA, Cytiva) according to the reported procedure. The system was flushed with running buffer (10 mM HEPES, pH 7.4, 150 mM NaCl, 0.5 mM ADP, 0.5 mM TCEP, 2 mM MgCl2, 0.05% Tween 20, 2% DMSO). […]

[3] = system: full-length NLRP3, PYD-NACHT fragment, PYD fragment; assay: Drug affinity responsive target stability (DARTS); type: binding, human; conditions: YQ128 50 μM; 50–200 ng Pronase per μg protein
Protocol: Then, 0.1 mg/mL Pronase (Sigma-Aldrich) was added at the protease to protein ratio, between 50 and 200 ng Pronase per μg of protein for 7.5–30 min at room temperature. The reaction was stopped by the addition of a 20x protease inhibitor cocktail and incubated on ice for 10 min. Protein samples were analyzed by immunoblotting.

caspase-1 = target: T6, caspase-1 (Homo sapiens, UniProt P29466); assay: In vitro caspase-1 cleavage assay (recombinant YTHDF2 substrate); conditions: recombinant caspase-1; YQ128 1, 3 and 10 μM
T6 sequence (P29466 120-297 limits assumed): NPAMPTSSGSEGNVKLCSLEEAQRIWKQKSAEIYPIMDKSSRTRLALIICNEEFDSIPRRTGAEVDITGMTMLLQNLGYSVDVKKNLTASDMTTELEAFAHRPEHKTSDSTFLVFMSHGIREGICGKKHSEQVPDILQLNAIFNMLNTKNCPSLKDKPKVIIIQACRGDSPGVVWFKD
T6 sequence (P29466 317-404 limits assumed): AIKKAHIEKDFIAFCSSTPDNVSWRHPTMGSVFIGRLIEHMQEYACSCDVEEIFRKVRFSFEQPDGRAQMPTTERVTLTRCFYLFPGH
Protocol: The reactions were then terminated by boiling in 2× SDS sample buffer, and the samples were analyzed by Western blotting.

mitochondrial ROS = assay: Mitochondrial ROS and integrity (MitoSOX/MitoTracker) in J774A.1 cells; type: cell-based, murine; conditions: LPS/nigericin, YQ128 10 μM
Protocol: J774A.1 cells (5 × 10^5 cells/mL) were plated in 12-well plates precoated with poly-L-lysine overnight. […] The supernatants were discarded, and the cells were washed with ice-cold PBS three times and fixed with 4% PFA in PBS for 15 min. DAPI (5 μg/mL) was used for nuclear staining. After that, the cells were washed with PBS three times, and fluorescence microscopy analyses were carried out using an Olympus IX73.
Figure S2. J774A.1 were primed with LPS (1 μg/mL) for 4.5 h and treated with or […]
h. Cells were stained with MitoSOX and MitoTracker red. Nuclei were stained with […]
Figure S3. YQ128 (A&B) and MCC950 (C&D) dose-dependently block the recognition of NLRP3 by D4D8T antibody. […]

[4] = system: caspase-1 and GSDMD cleavage; assay: Western blot of cleavage of caspase-1 and GSDMD in J774A.1 cells; type: cell-based, murine; conditions: LPS 10 μg/mL/nigericin 10 μM
[5] = target: T7, recombinant human NLRP3 protein (Homo sapiens, UniProt Q96P20); assay: Microscale thermophoresis (MST); type: binding; conditions: n = 3
T7 construct: The recombinant full-length NLRP3 protein was expressed and purified as previously described using Expi293F cells; 10His (N); 6His (C); made in house; host or cells: Expi293F
Protocol: The binding affinity was measured with a Monolith NT.Automated instrument as described previously. Recombinant human NLRP3 protein (500 nM) was labeled with 50 nM RED-tris-NTA dye (NanoTemper Technologies, MO-L018). […] The samples were loaded into NanoTemper glass capillaries, and thermophoresis curves were analyzed using the instrument.

[6] = system: NLRP3 and pro-IL-1β expression; assay: Western blot of LPS-induced NLRP3 and pro-IL-1β (priming stage) in J774A.1 cells; type: cell-based, murine; conditions: YQ128 10 μM, curcumin 150 μM, MCC950 1 μM, LPS 1 μg/mL

T1 sequence (Q8R4B8 whole entry): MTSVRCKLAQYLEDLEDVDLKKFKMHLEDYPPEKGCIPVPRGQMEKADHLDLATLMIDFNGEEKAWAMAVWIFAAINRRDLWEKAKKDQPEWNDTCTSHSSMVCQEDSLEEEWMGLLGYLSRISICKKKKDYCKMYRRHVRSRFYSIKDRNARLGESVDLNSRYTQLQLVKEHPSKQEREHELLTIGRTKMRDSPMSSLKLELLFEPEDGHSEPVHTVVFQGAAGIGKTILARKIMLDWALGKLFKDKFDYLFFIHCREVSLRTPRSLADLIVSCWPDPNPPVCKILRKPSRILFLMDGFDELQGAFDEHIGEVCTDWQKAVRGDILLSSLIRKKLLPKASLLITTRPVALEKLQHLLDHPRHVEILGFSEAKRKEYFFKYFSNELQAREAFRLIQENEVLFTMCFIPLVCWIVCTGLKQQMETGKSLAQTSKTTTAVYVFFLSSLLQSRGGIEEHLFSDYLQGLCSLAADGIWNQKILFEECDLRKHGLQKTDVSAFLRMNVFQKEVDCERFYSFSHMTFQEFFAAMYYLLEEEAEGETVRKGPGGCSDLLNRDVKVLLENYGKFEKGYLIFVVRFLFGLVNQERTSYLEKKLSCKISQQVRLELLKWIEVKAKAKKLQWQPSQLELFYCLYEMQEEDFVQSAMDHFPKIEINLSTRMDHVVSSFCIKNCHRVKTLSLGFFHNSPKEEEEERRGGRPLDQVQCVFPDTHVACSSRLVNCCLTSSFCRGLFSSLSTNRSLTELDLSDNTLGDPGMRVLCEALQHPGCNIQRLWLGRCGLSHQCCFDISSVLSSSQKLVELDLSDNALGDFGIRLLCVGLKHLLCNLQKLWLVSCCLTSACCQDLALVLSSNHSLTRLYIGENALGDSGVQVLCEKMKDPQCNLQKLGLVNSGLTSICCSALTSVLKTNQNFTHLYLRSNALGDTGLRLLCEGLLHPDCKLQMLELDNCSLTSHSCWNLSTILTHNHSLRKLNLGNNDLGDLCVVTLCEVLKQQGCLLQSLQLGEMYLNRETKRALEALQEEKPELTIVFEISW
T5 sequence (Q96P20 131-679): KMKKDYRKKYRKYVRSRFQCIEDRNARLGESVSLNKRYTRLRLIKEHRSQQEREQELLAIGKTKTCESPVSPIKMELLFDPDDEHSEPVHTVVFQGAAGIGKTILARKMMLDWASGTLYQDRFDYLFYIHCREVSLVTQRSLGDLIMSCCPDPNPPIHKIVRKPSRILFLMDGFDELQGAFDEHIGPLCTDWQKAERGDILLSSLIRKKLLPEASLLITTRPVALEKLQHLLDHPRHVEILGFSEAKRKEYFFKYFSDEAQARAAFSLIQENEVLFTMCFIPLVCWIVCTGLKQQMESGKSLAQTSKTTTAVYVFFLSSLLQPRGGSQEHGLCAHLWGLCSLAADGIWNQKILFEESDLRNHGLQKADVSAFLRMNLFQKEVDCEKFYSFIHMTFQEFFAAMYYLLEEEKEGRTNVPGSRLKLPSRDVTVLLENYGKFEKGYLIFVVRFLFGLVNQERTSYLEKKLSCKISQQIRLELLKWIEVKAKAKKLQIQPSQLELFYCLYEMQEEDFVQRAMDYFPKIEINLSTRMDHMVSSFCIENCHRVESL
T7 sequence (Q96P20 whole entry): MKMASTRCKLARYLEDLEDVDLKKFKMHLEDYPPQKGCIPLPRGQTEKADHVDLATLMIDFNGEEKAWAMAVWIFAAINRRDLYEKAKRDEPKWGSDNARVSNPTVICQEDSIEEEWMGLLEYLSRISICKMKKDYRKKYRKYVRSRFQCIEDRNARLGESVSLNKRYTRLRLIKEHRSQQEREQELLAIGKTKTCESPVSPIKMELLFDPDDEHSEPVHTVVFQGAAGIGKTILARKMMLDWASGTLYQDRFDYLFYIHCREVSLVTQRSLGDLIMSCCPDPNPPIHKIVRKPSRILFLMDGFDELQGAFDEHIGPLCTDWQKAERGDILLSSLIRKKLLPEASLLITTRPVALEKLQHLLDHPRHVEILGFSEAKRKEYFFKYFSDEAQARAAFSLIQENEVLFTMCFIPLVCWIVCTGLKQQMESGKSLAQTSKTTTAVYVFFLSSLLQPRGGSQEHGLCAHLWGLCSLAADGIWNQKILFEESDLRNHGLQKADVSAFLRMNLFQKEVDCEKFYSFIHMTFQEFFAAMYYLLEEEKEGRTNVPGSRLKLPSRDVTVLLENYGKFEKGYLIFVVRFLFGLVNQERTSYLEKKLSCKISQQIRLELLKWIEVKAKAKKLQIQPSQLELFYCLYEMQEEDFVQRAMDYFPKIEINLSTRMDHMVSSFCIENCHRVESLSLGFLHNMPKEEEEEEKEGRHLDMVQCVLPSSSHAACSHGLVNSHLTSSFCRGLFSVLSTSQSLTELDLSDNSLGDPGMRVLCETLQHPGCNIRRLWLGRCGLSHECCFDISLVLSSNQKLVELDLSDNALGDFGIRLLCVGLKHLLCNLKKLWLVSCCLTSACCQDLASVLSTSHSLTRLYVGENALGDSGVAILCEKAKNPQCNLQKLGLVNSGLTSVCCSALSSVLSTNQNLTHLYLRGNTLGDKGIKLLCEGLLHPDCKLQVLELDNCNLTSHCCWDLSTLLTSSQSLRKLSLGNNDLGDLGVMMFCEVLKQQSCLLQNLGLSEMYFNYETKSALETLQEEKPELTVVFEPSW

competition of YM-I-27 labeling of NLRP3 (NLRP3 [1]; recombinant NLRP3 preincubated with competitor): completely blocked the interaction
SMILES: O=C(O)c1ccc(/C=C2/SC(=S)N(Cc3cccc(C(F)(F)F)c3)C2=O)cc1 [CY-09, reference compound]

IC50 (NLRP3 inflammasome): 0.5 µM
decrease of emission lifetime of Alexa Fluor 488 (FRET donor) (endogenous NLRP3): ~44 ps
SMILES: C#CCCC1(CCOc2ccc(Cl)cc2CN(CCc2ccc(S(=O)(=O)NCC#C)cc2)C(=O)Cc2ccsc2)N=N1 [YM-I-27]
in situ proteome labeling (NLRP3 [2]): successfully and efficiently recognized NLRP3 along with four other proteins
labeling of recombinant NLRP3 protein by probe (NLRP3 [1]; UV cross-linking, NBD-N3 click, fluorescent visualization): dose-dependently labeled the NLRP3 protein

IC50 (NLRP3 inflammasome): 2.4 µM
potency relative to YQ128 (fold less) (NLRP3 inflammasome; LPS/ATP, IL-1β): ~8 fold
SMILES: C#CCNS(=O)(=O)c1ccc(CCN(Cc2cc(Cl)ccc2OCCC2(CCc3cn(CCOCCOCCNC(=O)CCCCC4SCC5NC(=O)NC54)nn3)N=N2)C(=O)Cc2ccsc2)cc1 (centres unmarked) [YM-I-85]
photoaffinity labeling of proteins by probe (pull-down, Western blot) (NLRP3, NEK7, ASC): efficiently labeled NLRP3 and NEK7 in a dose-dependent manner but not ASC

Kd (NLRP3 NACHT domain): 0.165 µM
Kd [5]: 0.117 µM
SMILES: C#CCNS(=O)(=O)c1ccc(CCN(Cc2cc(Cl)ccc2OCCC)C(=O)Cc2ccsc2)cc1 [YQ128]
formation of ASC specks (ASC specks): significantly suppressed the formation of ASC specks
production of TNF-α (TNF-α): No inhibition
Pronase digestion pattern (DARTS) [3]: the digestion pattern of the full-length NLRP3 and the PYD-NACHT fragment, but not the PYD fragment, by Pronase was altered
catalytic activity of caspase-1 (caspase-1): does not interfere with the catalytic activity of caspase-1
production of mitochondrial ROS and integrity (mitochondrial ROS): no significant effect
cleavage of caspase-1 and GSDMD [4]: inhibitory effect
levels of LPS-induced pro-IL-1β and NLRP3 [6]: neither YQ128 nor MCC950 changed the levels
